Reference: US9802899B2, “Heterocyclic compounds as pesticides” (BAYER CROPSCIENCE AG, priority 2012, dated 2017)

Experiments:
Boophilus microplus = Boophilus microplus test (DIP); type: in vivo; conditions: application rate 100 ppm, after 7 days by laying of fertile eggs, 100% = no fertile eggs
Description: Boophilus microplus Test (DIP)
Test animals: adult engorged Boophilus microplus females of the SP-resistant Parkhurst strain
(§1) Solvent: dimethyl sulphoxide
10 mg of active compound are dissolved in 0.5 ml of dimethyl sulphoxide. For the purpose of preparing a suitable formulation, the active compound solution is diluted with water to the concentration desired in each case.
This active compound preparation is pipetted into tubes. 8-10 ticks are transferred into a further tube with holes. The tube is immersed into the active compound formulation, and all ticks are completely wetted. After the liquid has run out, the ticks are transferred onto filter discs in plastic dishes and stored in a climate-controlled room.
The activity is assessed after 7 days by laying of fertile eggs. Eggs whose fertility is not visible from the outside are stored in a climate-controlled cabinet until the larvae hatch. An efficacy of 100% means that none of the ticks has laid any fertile eggs.

[1] = Determination of the log P values by HPLC (formic acid method); type: physicochemical; conditions: reversed-phase column (C 18), acidic range (pH 3.4), 55° C.
Description: 1) Description of Method for Determination of the Log P Values (Formic Acid Method)
Eluents for determination in the acidic range (pH 3.4):
Eluent A: acetonitrile+1 ml of formic acid/liter. Eluent B: water+0.9 ml of formic acid/liter.
The lambda max values were determined in the maxima of the chromatographic signals using the UV spectra from 200 nm to 400 nm.

spider mites = assay: spider mite test, efficacy in % after 6 days; type: in vivo; conditions: 100% = all spider mites killed, 0% = none killed
Description: After 6 days, the efficacy in % is determined. 100% means that all of the spider mites have been killed; 0% means that none of the spider mites have been killed.

Phaedon cochleariae = Phaedon cochleariae spray test (PHAECO); type: in vivo; conditions: foliar, 168 h, application rate 500 g/ha, larvae on Chinese cabbage leaf discs, after 7 days, read-out: efficacy
Description: Phaedon cochleariae Spray Test (PHAECO)
Solvents: 78.0 parts by weight of acetone • • 1.5 parts by weight of dimethylformamide
Emulsifier: 0.5 part by weight of alkylaryl polyglycol ether
To produce a suitable preparation of active compound, 1 part by weight of active compound is mixed with the stated amounts of solvents and emulsifier, and the concentrate is diluted with emulsifier-containing water to the desired concentration.
After 7 days, the efficacy in % is determined. 100% means that all of the beetle larvae have been killed; 0% means that none of the beetle larvae have been killed.

Meloidogyne incognita = Meloidogyne incognita test (MELGIN); type: in vivo; conditions: application rate 20 ppm, lettuce in sand, after 14 days; for pest or weed control at 20 ppm: Meloidogyne incognita, 336 h, read-out: nematicidal effect (formation of galls)
Description: Meloidogyne incognita Test (MELGIN)
Solvent: 125.0 parts by weight of acetone
To prepare a suitable active compound preparation, 1 part by weight of active compound is mixed with the stated amount of solvent and the concentrate is diluted with water to the desired concentration.
Vessels are filled with sand, active compound solution, an egg/larvae suspension of the root-knot nematode (Meloidogyne incognita) and lettuce seeds. The lettuce seeds germinate and the plants develop. On the roots, galls are formed.
After 14 days, the nematicidal effect in % is determined by the formation of galls. 100% means that no galls have been found; 0% means that the number of galls on the treated plants corresponds to the untreated control.

Cooperia curticei = Cooperia curticei test (COOPCU); type: in vivo; conditions: Cooperia curticei, 120 h, read-out: efficacy (kill)
Description: Cooperia curticei Test (COOPCU)
as §1
To produce a suitable preparation of active compound, 10 mg of active compound are mixed with 0.5 ml of dimethyl sulphoxide, and the concentrate is diluted with Ringer solution to the desired concentration.
Vessels containing the active compound preparation of the desired concentration are populated with about 40 nematode larvae (Cooperia curticei).
After 5 days, the kill in % is determined 100% means that all of the larvae have been killed; 0% means that none of the larvae have been killed.

[2] = reversed-phase HPLC column (C 18)

Compound | log P [1] | chromatographic logP [1, 2] | efficacy in % (spider mites; application rate of 500 g/ha) [%] | also measured
O=C(Nc1ccn(-c2ccccc2F)n1)c1ccccc1Br [Compound I-1-10] | 2.78 |  | 80 | 
O=C(Nc1nn(-c2ccccc2Cl)cc1Br)c1ccccc1C(F)(F)F [Compound I-1-16, N-[4-Bromo-1-(2-chlorophenyl)-1H-pyrazol-3-yl]-2-(trifluoromethyl)benzamide] |  | 3.11 |  | pest or weed control at 500 g/ha (Phaedon cochleariae): 83%
O=C(Nc1ccn(-c2ccccc2Cl)n1)c1ccccc1OC(F)(F)F [Compound I-1-18] | 3.28 |  | 80 | 
CN(C(=O)c1ccccc1Cl)c1ccn(-c2ccccc2Cl)n1 [Compound I-1-21, 2-Chloro-N-[1-(2-chlorophenyl)-1H-pyrazol-3-yl]-N-methylbenzamide] |  | 3.14 |  | pest or weed control at 500 g/ha (Phaedon cochleariae): 100%
O=C(Nc1ccn(-c2ccccc2Cl)n1)c1ccccc1Br [Compound I-1-32] | 2.83 |  |  | efficacy (Boophilus microplus): 80%
O=C(Nc1ccn(-c2ccccc2Cl)n1)c1ccccc1I [Compound I-1-33] | 2.95 |  |  | efficacy (Boophilus microplus): 100%
O=C(Nc1ccn(-c2ccccc2Cl)n1)c1cccnc1Cl [Compound I-1-43] | 2.19 |  |  | efficacy in % (spider mites; application rate of 100 g/ha): 90%
Cc1nn(C)c(Cl)c1C(=O)Nc1ccn(-c2ccccc2Cl)n1 [Compound I-1-48] | 2.46 |  |  | efficacy (Boophilus microplus): 100%
O=C(Nc1ccn(-c2ccccc2Br)n1)c1ccccc1I [Compound I-1-53] | 3.07 |  |  | efficacy (Boophilus microplus): 90%
Cc1cccc(C)c1-n1ccc(NC(=O)c2ccccc2Cl)n1 [Compound I-1-61, 2-Chloro-N-[1-(2,6-dimethylphenyl)-1H-pyrazol-3-yl]benzamide] |  | 2.63 |  | pest or weed control at 500 g/ha (Phaedon cochleariae): 100%
O=C(Nc1ccn(-c2c(F)cccc2F)n1)c1cccnc1Br [Compound I-1-96] | 1.97 |  |  | efficacy (Boophilus microplus): 100%
CCOc1cccc(F)c1-n1ccc(NC(=O)c2ccccc2Cl)n1 [Compound I-1-117, 2-Chloro-N-[1-(2-ethoxy-6-fluorophenyl)-1H-pyrazol-3-yl]benzamide] |  | 2.84 |  | pest or weed control at 20 ppm (Meloidogyne incognita): 100%; pest or weed control at 500 g/ha (Phaedon cochleariae): 100%
O=C(Nc1ccn(-c2c(Cl)cccc2Cl)n1)c1ccccc1I [Compound I-1-123, N-[1-(2,6-Dichlorophenyl)-1H-pyrazol-3-yl]-2-iodobenzamide] |  | 3.04 |  | pest or weed control at 500 g/ha (Phaedon cochleariae): 100%
O=C(Nc1ccn(-c2ncccc2Cl)n1)c1ccccc1Br [Compound I-1-137] | 2.23 |  |  | nematicidal effect (formation of galls) (Meloidogyne incognita): 80%
O=C(Nc1ccn(-c2ncc(F)cc2F)n1)c1c(F)cccc1F [Compound I-1-146, N-[1-(3,5-Difluoropyridin-2-yl)-1H-pyrazol-3-yl]-2,6-difluorobenzamide] |  | 2.19 |  | pest or weed control at 20 ppm (Meloidogyne incognita): 100%; pest or weed control at 100 ppm (Cooperia curticei): 100%
Cc1cc(NC(=O)c2cccnc2Br)nn1-c1ccc(F)cc1F [Compound I-1-210] | 2.89 |  | 95 | 
O=C(Nc1ccn(-c2c(F)cccc2F)n1)c1cccnc1C(F)F [Compound I-1-248] | 1.99 |  | 80 | 
O=C(c1ccccc1C(F)(F)F)N(CC1CC1)c1ccn(-c2c(F)cccc2F)n1 [Compound I-1-258] | 3.68 |  | 95 | 
CCOCN(C(=O)c1ccccc1C(F)(F)F)c1ccn(-c2c(F)cccc2F)n1 [Compound I-1-262] | 3.40 |  | 95 | 
CC#CCN(C(=O)c1ccccc1C(F)(F)F)c1ccn(-c2c(F)cccc2F)n1 [Compound I-1-263] | 3.40 |  | 95 | 
N#Cc1cccnc1-n1ccc(NC(=O)c2ccccc2C(F)(F)F)n1 [Compound I-1-575, N-[1-(3-Cyanopyridin-2-yl)-1H-pyrazol-3-yl]-2-(trifluoromethyl)benzamide] |  | 2.55 |  | pest or weed control at 20 ppm (Meloidogyne incognita): 100%; pest or weed control at 20 ppm (Cooperia curticei): 100%
O=C(Nc1ccn(-c2ccc(F)cn2)n1)c1c(F)cccc1F [Compound I-1-598] | 2.61 |  | 85 | 
O=C(Nc1cnn(-c2c(F)cccc2F)n1)c1ccccc1C(F)(F)F [Compound I-2-35, N-[2-(2,6-Difluorophenyl)-2H-1,2,3-triazol-4-yl]-2-(trifluoromethyl)benzamide] |  |  |  | chromatographic logP [1]: 2.8; pest or weed control at 20 ppm (Meloidogyne incognita): 100%; pest or weed control at 20 ppm (Cooperia curticei): 100%; pest or weed control at 500 g/ha (Phaedon cochleariae): 100%
O=C(NC1=NN(c2c(F)cccc2F)CC1)c1ccccc1Br [Compound I-4-2, 2-Bromo-N-[1-(2,6-difluorophenyl)-4,5-dihydro-1H-pyrazol-3-yl]benzamide] |  | 2.8 |  | pest or weed control at 500 g/ha (Phaedon cochleariae): 100%

Second part, led by results:

log P [1] | chromatographic logP [1, 2] | Compound | efficacy in % (spider mites; application rate of 500 g/ha) [%] | also measured
3.05 |  | O=C(Nc1ccn(-c2ccccc2C(F)(F)F)n1)c1ccccc1I [Compound I-1-5] |  | efficacy (Boophilus microplus): 100%
2.99 |  | O=C(Nc1ccn(-c2ccccc2Cl)n1)c1ncccc1C(F)(F)F [Compound I-1-39] | 80 | efficacy (Boophilus microplus): 90%
 | 2.93 | Cn1nc(C(F)(F)F)c(C(=O)Nc2ccn(-c3cc(F)ccc3F)n2)c1F [Compound I-1-72, N-[1-(2,5-Difluorophenyl)-1H-pyrazol-3-yl]-5-fluoro-1-methyl-3-(trifluoromethyl)-1H-pyrazole-4-carboxamide] |  | pest or weed control at 500 g/ha (Phaedon cochleariae): 100%
2.67 |  | O=C(Nc1ccn(-c2c(F)cccc2F)n1)c1ccccc1I [Compound I-1-83] |  | efficacy (Boophilus microplus): 100%
3.09 |  | O=C(Nc1ccn(-c2cccc(F)c2F)n1)c1ccccc1I [Compound I-1-190] |  | nematicidal effect (formation of galls) (Meloidogyne incognita): 90%
3.05 |  | O=C(Nc1ccn(-c2ncc(Cl)cc2Cl)n1)c1ccccc1C(F)(F)F [Compound I-1-428] | 95 | 
 | 1.69 | O=C(Nc1ccn(-c2c(F)cc(F)c[n+]2[O-])n1)c1ccccc1C(F)(F)F [Compound I-1-438, N-[1-(3,5-Difluoro-1-oxidopyridin-2-yl)-1H-pyrazol-3-yl]-2-(trifluoromethyl)benzamide] |  | pest or weed control at 20 ppm (Meloidogyne incognita): 90%
 | 2.47 | N#Cc1nccnc1-n1ccc(NC(=O)c2ccccc2C(F)(F)F)n1 [Compound I-1-574, N-[1-(3-Cyanopyrazin-2-yl)-1H-pyrazol-3-yl]-2-(trifluoromethyl)benzamide] |  | pest or weed control at 20 ppm (Meloidogyne incognita): 100%
2.88 |  | O=C(Nc1ccn(-c2ccc(F)cn2)n1)c1ccccc1C(F)(F)F [Compound I-1-596] | 95 | 
 | 3.41 | N#Cc1c(-c2ccc(F)cc2)ccnc1-n1ccc(NC(=O)c2ccccc2C(F)(F)F)n1 [Compound I-1-641, N-{1-[3-Cyano-4-(4-fluorophenyl)pyridin-2-yl]-1H-pyrazol-3-yl}-2-(trifluoromethyl)benzamide] |  | pest or weed control at 20 ppm (Meloidogyne incognita): 90%
